Usually IC50 stands for the concentration that inhibits the measured activity by half. Lower therefore signals inhibition by little substance.

Values joined by “and” are separate entries in the source; they are usually repeats but may differ in a detail not shown here. Identical values can stand only once. Bounds are passed on as bounds.

The source of these data is BindingDB's records for patent US20250313563 (The Broad Institute, 2025).

In this assay the target is Glycogen synthase kinase-3 beta (Homo sapiens, UniProt P49841). The experiment in a line: TR-FRET Assay. As for the experimental part: The assay was performed in a white, 384 well, low volume, flat bottom plate (Grenier). […] The kinase activity was quenched with 2 μL of 250 mM EDTA. A 10 μL volume of 40 nM Strepavidin-d2, 2 nM Tb2+-pSer641 antibody in TR-FRET Detection Buffer (Invitrogen) was then added.
Glycogen synthase kinase-3 beta, sequence (P49841 whole entry): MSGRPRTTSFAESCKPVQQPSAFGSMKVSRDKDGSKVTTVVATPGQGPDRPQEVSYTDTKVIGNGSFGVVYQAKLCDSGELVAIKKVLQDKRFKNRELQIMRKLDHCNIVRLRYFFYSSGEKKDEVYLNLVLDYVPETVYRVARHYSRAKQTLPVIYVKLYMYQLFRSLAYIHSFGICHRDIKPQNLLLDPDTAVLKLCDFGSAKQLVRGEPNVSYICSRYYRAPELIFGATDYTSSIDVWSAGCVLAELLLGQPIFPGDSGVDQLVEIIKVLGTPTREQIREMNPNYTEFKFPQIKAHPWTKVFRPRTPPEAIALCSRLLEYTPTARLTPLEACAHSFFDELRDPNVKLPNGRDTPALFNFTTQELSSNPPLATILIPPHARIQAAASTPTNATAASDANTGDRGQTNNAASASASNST
(Time-resolved FRET reads energy transfer from a long-lived donor to a nearby acceptor.)
On to `CC(C)(C)CC1N=NC2=C1C1(CN(c3ccccc3)C1)C1=C(CC(C)(C)CC1=O)N2` (stereo unspecified) [US20250313563, Compound 93429], for which the IC50 is 1000 to 5000 nM and 134 nM.
In the case of `CC[C@@]1(c2cccc(N3CCCCC3)c2)C2=C(CC(C)(C)NC2=O)NC2N=NC(C(F)(F)F)=C21` (stereo partly specified) [US20250313563, Compound 949183], the IC50 was 100 to 1000 nM.
The same measure for `CC1(C)CC(=O)C2=C(C1)NC1N=NC(C3(C(F)(F)F)CC3)=C1[C@@]21CCc2c(F)cccc21` (stereo partly specified) [US20250313563, Compound 816839]: 1000 to 5000 nM; for `CC[C@@]1(c2cccc(OC)c2)C2=CN=NC2NC2=C1C(=O)C[C@H](C)C2` (stereo partly specified) [US20250313563, Compound 811559]: 100 to 1000 nM.
The same measure for `CC[C@]1(c2cccc(C(F)(F)F)c2)C2=C(N=NC2)NC2=C1C(=O)N[C@@H]2C` [US20250313563, Compound 945378]: 100 to 1000 nM; for `CC1(C)CC(=O)C2=C(C1)NC1=C(CN=N1)[C@]21COC2(CN(C(=O)C3CCOCC3)C2)C1` [US20250313563, Compound 945407]: 100 to 1000 nM.
The same measure for `CC[C@]1(c2cccc(-c3ccnn3C)c2)C2=CN=NC2NC2=C1C(=O)NC1(CCOCC1)C2` (stereo partly specified) [US20250313563, Compound 948516]: 100 to 1000 nM; for `CC[C@@]1(c2cccc(-c3cn(C)nc3C)c2)C2=CN=NC2NC2=C1C(=O)N(C)C(C)(C)C2` (stereo partly specified) [US20250313563, Compound 949005]: 1000 to 5000 nM; for `CC[C@]1(c2cccc(Br)c2)C2=CN=NC2NC2=C1C(=O)[C@H](F)C(C)(C)C2` (stereo partly specified) [US20250313563, Compound 835314]: 100 to 1000 nM.
As to `CCC1(c2cccc(-c3ccncc3)c2)C2=CN=NC2NC2=C1C(=O)CC(C)(C)C2` (stereo unspecified) [US20250313563, Compound 883984], the IC50 is less than 100 nM.
The same measure for `CC[C@@]1(c2cccc(-c3cc(C)nn3C)c2)C2=CN=NC2NC2=C1C(=O)CC(C)(C)C2` (stereo partly specified) [US20250313563, Compound 946097]: 100 to 1000 nM; for `CC1(C)CC(=O)C2=C(C1)NC1=C(CN=N1)[C@]21CCN(S(=O)(=O)c2ccccc2F)C1` [US20250313563, Compound 943487]: 100 to 1000 nM.
With `CC[C@]1(c2cccc(C(F)(F)F)c2)C2=C(CC(C)(C)CC2=O)NC2N=NC(Br)=C21` (stereo partly specified) [US20250313563, Compound 810466] the figure was 100 to 1000 nM; with `CC[C@@]1(c2cccc(-c3cnn(C(C)(C)C)c3)c2)C2=CN=NC2NC2=C1C(=O)NC(C)(C)C2` (stereo partly specified) [US20250313563, Compound 949112], 100 to 1000 nM and > 5000 nM.
The compound `CC[C@@]1(c2cccc(OC)c2)C2=C(CC(C)(C)CC2=O)NC2N=NC(C(=O)OC)=C21` (stereo partly specified) [US20250313563, Compound 901480] returned an IC50 of 100 to 1000 nM.
Consider `CC[C@]1(c2cccc(-c3ccncc3OC)c2)C2=CN=NC2NC2=C1C(=O)CC(C)(C)C2` (stereo partly specified) [US20250313563, Compound 945481], for which the IC50 was 100 to 1000 nM.
`CC[C@@]1(c2cccc(-c3cc(C)ncc3F)c2)C2=CN=NC2NC2=C1C(=O)CC(C)(C)C2` (stereo partly specified) [US20250313563, Compound 927346]: the IC50 was 1000 to 5000 nM.
For the compound `CC[C@@]1(c2cccc(S(=O)(=O)C(C)C)c2)C2=CN=NC2NC2=C1C(=O)CC(C)(C)C2` (stereo partly specified) [US20250313563, Compound 913135], the IC50 was in the range of 100 to 1000 nM.
On to `CC[C@]1(c2cccc(C(F)(F)F)c2)C2=CN=NC2NC2=C1C(=O)N(c1ccn(C)n1)CC2` (stereo partly specified) [US20250313563, Compound 949835], for which the IC50 lay within 100 to 1000 nM.
Turning to `CC[C@]1(c2cccc(S(C)(=O)=O)c2)C2=CN=NC2NC2=C1C(=O)CC(C)(C)C2` (stereo partly specified) [US20250313563, Compound 826718], the IC50 was < 100 nM and 100 to 1000 nM.
With `CC[C@@]1(c2cccc(C(F)(F)F)c2)C2=C(CCN(c3cnc(OC)nc3)C2=O)NC2N=NC(C)=C21` (stereo partly specified) [US20250313563, Compound 949126] the figure was 100 to 1000 nM.
With `CC[C@]1(c2cccc(-c3c(C)cncc3C)c2)C2=CN=NC2NC2=C1C(=O)CC(C)(C)C2` (stereo partly specified) [US20250313563, Compound 947658] the figure was < 100 nM and 100 to 1000 nM; with `CC[C@]1(c2cccc(-c3cc(C)ncc3C)c2)C2=C(CC(C)(C)CC2=O)NC2N=NC(C(F)(F)F)=C21` (stereo partly specified) [US20250313563, Compound 947363], 100 to 1000 nM; with `CC[C@]1(c2cccc(S(=O)(=O)C3CC3)c2)C2=CN=NC2NC2=C1C(=O)CC(C)(C)C2` (stereo partly specified) [US20250313563, Compound 912171], < 100 nM and 100 to 1000 nM.
The same measure for `CC[C@]1(c2cccc(-c3ccncc3C)c2)C2=CN=NC2NC2=C1C(=O)CC(C)(C)C2` (stereo partly specified) [US20250313563, Compound 943990]: 100 to 1000 nM; for `CC(C)(C)CC1N=NC2=C1[C@@](C)(c1cccc(N3C=COCC3)c1)C1=C(CC(C)(C)CC1=O)N2` (stereo partly specified) [US20250313563, Compound 126399]: greater than 5000 nM; for `CN1C[C@@]2(C3=C(CC(C)(C)CC3=O)NC3N=NC(CC(C)(C)C)=C32)c2ccccc21` (stereo partly specified) [US20250313563, Compound 125979]: 1000 to 5000 nM.
The compound `CC[C@@]1(c2cccc(-c3c(Cl)cncc3Cl)c2)C2=CN=NC2NC2=C1C(=O)NC(C)(C)C2` (stereo partly specified) [US20250313563, Compound 948515] displayed an IC50 of 100 to 1000 nM.
The same measure for `CC[C@]1(c2cccc(COC)c2)C2=CN=NC2NC2=C1C(=O)CC(C)(C)C2` (stereo partly specified) [US20250313563, Compound 810360]: 100 to 1000 nM; for `CC[C@@]1(c2cccc(S(=O)(=O)C(C)C)c2)C2=C(CC(C)(C)NC2=O)NC2N=NC(C)=C21` (stereo partly specified) [US20250313563, Compound 947876]: 100 to 1000 nM.
Compound `CC[C@]1(c2cccc(-c3ccnc(C)c3)c2)C2=CN=NC2NC2=C1C(=O)NC(C)(COC)C2` (stereo partly specified) [US20250313563, Compound 948521] yielded an IC50 of 1000 to 5000 nM.
The same measure for `CCC1(c2cccc(N3CCC[C@H]3C)c2)C2=CN=NC2NC2=C1C(=O)CC(C)(C)C2` (stereo partly specified) [US20250313563, Compound 885204]: 100 to 1000 nM.
With `CC(C)(C)CC1N=NC2=C1[C@@](C)(c1ccccc1)C1=C(CC(C)(C)NC1=O)N2` (stereo partly specified) [US20250313563, Compound 114532] the figure was greater than 5000 nM; with `CC[C@]1(c2cccc(-c3cc(C)ncc3F)c2)C2=CN=NC2NC2=C1C(=O)NC(C)(C)C2` (stereo partly specified) [US20250313563, Compound 947804], 100 to 1000 nM; with `CC[C@]1(c2cccc(-c3ccnn3C)c2)C2=CN=NC2NC2=C1C(=O)CC(C)(C)C2` (stereo partly specified) [US20250313563, Compound 911992], 100 to 1000 nM.
With `CC[C@]1(c2cccc(Cl)c2)C2=C(CC(C)(C)CC2=O)NC2N=NC(Br)=C21` (stereo partly specified) [US20250313563, Compound 801314] the figure was < 100 nM and 100 to 1000 nM.
Compound `CC[C@]1(c2cccc(-c3ccnc4c3CCCC4)c2)C2=C(N=NC2)NC2=C1C(=O)N(Cc1ccccc1)C2` [US20250313563, Compound 948551] had an IC50 of 100 to 1000 nM.
With `CC1(C)CC(=O)C2=C(C1)NC1N=NC(C3CC(F)(F)C3)=C1[C@]21COc2ccccc21` (stereo partly specified) [US20250313563, Compound 127429] the figure was 1000 to 5000 nM.
With `COC(=O)C1(c2ccccc2)CC2(C1)C1=C(N=NC1)NC1=C2C(=O)CC(C)(C)C1` (stereo unspecified) [US20250313563, Compound 942344] the figure was 100 to 1000 nM.
For `CC[C@@]1(c2cccc(C(F)(F)F)c2)C2=CN=NC2NC2=C1C(=O)N(CC(F)(F)F)CC2` (stereo partly specified) [US20250313563, Compound 912206], the IC50 lay within 100 to 1000 nM.
With `CC1(C)CC(=O)C2=C(C1)NC1=C(CN=N1)[C@]21CCN(S(=O)(=O)c2ccccc2)C1` [US20250313563, Compound 951787] the figure was 100 to 1000 nM.
